Here are results for 6 molecules from paper PMC12077149, “Evolution of PqsE as a Pseudomonas aeruginosa-specific regulator of LuxR-type receptors: insights from Pseudomonas and Burkholderia” (mBio, 2025).

Assay [1] addresses T1, CepR (Burkholderia cepacia, UniProt Q9AM51).
T1 construct: gene CO711_26440; untagged full-length, in E. coli (arabinose-inducible with pcepI-luxCDABE reporter; pET-DUET for solubility)
Nature of the assay: protein solubilization in E. coli, SDS-PAGE. In kind it is cell-based. Conditions: AHL added at induction.

Assay [2] deals with T1, CepR. Nature of the assay: E. coli pcepI-lux reporter; protein solubilization. The assay is classed as cell-based. The note with it: 10 µM AHL in reporter; agonist.
The test system of assay [3] is T2, HhqE^Bc.
T2 construct: 6xHis-tagged, E. coli BL21(DE3), Ni-NTA and SEC; monomer (~32 kDa by SEC)
Nature of the assay: fluorescence hydrolysis assay (ex […] / em […] nm). In kind it is biochemical, Burkholderia cepacia. The note with it: 50 mM Tricine, 0.01% Triton X-100; 2 µM enzyme; substrate up to 8 µM.

The subject of assay [4] is T2, HhqE^Bc. Nature of the assay: thiol release with Ellman's reagent, A412. Conditions: 0.1 M Tris-HCl pH 8.0, 2 mM DTNB; 2 µM enzyme; substrate up to 1 mM. The assay is classed as biochemical, Burkholderia cepacia. The text has this: thiol release with Ellman's reagent, A412 on HhqE^Bc

T1 sequence (Q9AM51 entry or part of it): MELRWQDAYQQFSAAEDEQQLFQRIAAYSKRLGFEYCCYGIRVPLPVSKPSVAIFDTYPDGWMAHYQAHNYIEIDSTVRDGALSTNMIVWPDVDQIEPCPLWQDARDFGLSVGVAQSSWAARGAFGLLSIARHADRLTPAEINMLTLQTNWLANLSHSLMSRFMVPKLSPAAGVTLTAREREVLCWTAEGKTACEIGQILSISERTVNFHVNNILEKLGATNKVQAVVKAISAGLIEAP

`CCCCCCCCCC(=O)CC(=O)N[C@H]1CCOC1=O` [3OC12HSL]: the “protein solubilization in E. coli, SDS-PAGE” value at CepR [1] was “C6HSL, C8HSL, C10HSL, and 3OC12HSL—were sufficient for the solubilization of CepR”.

Consider `CCCCCC(=O)N[C@H]1CCOC1=O` [C6HSL], for which the “protein solubilization in E. coli, SDS-PAGE” value at CepR [1] was “C6HSL, C8HSL, C10HSL, and 3OC12HSL—were sufficient for the solubilization of CepR”.

`CCCCCCCCCC(=O)N[C@H]1CCOC1=O` [C10HSL]: the “E. coli pcepI-lux reporter; protein solubilization” value at CepR [2] is given as “CepR responded to its cognate ligand C8HSL and, to a lesser extent, C10HSL”.

For the molecule `CCCC(=O)Oc1ccc2c(C)cc(=O)oc2c1` [MU-butyrate], the Km in the assay with HhqE^Bc [3] was found to be 0.00016 mM.

For the molecule `CCCCCCCC(=O)N[C@H]1CCOC1=O` [C8HSL], the “E. coli pcepI-lux reporter; protein solubilization” value on CepR [2] was “CepR responded to its cognate ligand C8HSL and, to a lesser extent, C10HSL”.

For `CC(=O)CC(=O)SCCNC(=O)CCNC(=O)[C@H](O)C(C)(C)COP(=O)(O)OP(=O)(O)OC[C@H]1O[C@@H](n2cnc3c(N)ncnc32)[C@H](O)[C@@H]1OP(=O)(O)O` [Acetoacetyl-CoA], the Km in the assay on HhqE^Bc [4] came to 7.5 ± 0.4 mM.
